System: patients with atrial fibrillation
Assay: partial factorial, double-blind, randomized, multi-center, placebo-controlled trial of irbesartan for prevention of vascular events
Format: in vivo, human
From the text: Efficacy of irbesartan and its pharmaceutically acceptable salts versus placebo in patients with atrial fibrillation for the prevention of vascular events was provided via irbesartan during a partial factorial, double-blind, randomized, multi-center, placebo-controlled group trial.
To be eligible for the trial, patients had to have all of the following: an evidence of atrial fibrillation, an evidence of high risk of vascular events, and a systolic blood pressure of at least 110 mm Hg.
The evidence of atrial fibrillation is defined as follows: patient must have either permanent, paroxysmal or persistent atrial fibrillation. Patients in atrial fibrillation at baseline (unless cardiovascular surgery was performed in the previous month) had ECG documented atrial fibrillation at the time of enrollment. Patients not in atrial fibrillation at baseline (i.e. during screening period, between the screening visit and the day of randomization) had ECG documented atrial fibrillation on two separate occasions, at least 2 weeks apart in the six months prior to randomization (and not within one month of cardiovascular surgery).
The evidence of high risk of vascular events is defined as follows: at least one of the following risk criteria must be present:
Patients have been enrolled for over 4 years. Study drug treatment units (placebo or irbesartan) were such that each patient took two tablets of either placebo or 150 mg irbesartan form A, once daily, at night. After an up-titration period of 2 weeks, all patients were up-titrated to 300 mg. They took two tablets of either placebo or 150 mg irbesartan form A, once daily, at night.
Results were calculated using non-parametric Kaplan-Meier estimate.
Cox's proportional hazard model was used to estimate the hazard ratio also called relative risk.
Relative risk (RR) is the ratio between the risk of having a hospitalization for heart failure for patients treated with irbesartan and the risk of having a hospitalization for heart failure for patients treated with placebo.
The percentage of decrease of an event is calculated as follow: […]

Structure (SMILES): CCCCC1=NC2(CCCC2)C(=O)N1Cc1ccc(-c2ccccc2-c2nnn[nH]2)cc1 [irbesartan, 2-n-butyl-4-spirocyclopentane-1-[(2′-(tetrazol-5-yl)biphenyl-4-yl)methyl]-2-imidazolin-5-one]
- risk of heart failure hospitalization (4518 patients on irbesartan form A up-titrated to 300 mg once daily, Kaplan-Meier estimate, placebo 3.2% per year): 2.7 % per year
- number of stays in hospital (irbesartan group, placebo 4059, p=0.004): 3817
- days hospitalized for cardiovascular reasons (irbesartan group, placebo 39941, p=0.0001): 36480 days
- decrease of days hospitalized for cardiovascular reasons (irbesartan versus placebo): 8.7%
- relative risk (hazard ratio) of hospitalization for heart failure (irbesartan versus placebo, Cox's proportional hazard model, confidence interval 0.76-0.98, p=0.018): 0.86
- reduction in the risk of heart failure hospitalization (1-RR) (irbesartan versus placebo, p=0.018): 14%
- hospitalization for heart failure events (number of events in the irbesartan group (4518 patients), placebo 551): 482
- reduction in the risk of the composite of stroke, non-CVS embolism and transient ischemic attacks (post hoc analysis, irbesartan versus placebo, p=0.02): 13%
- risk of the composite of stroke, non-CVS embolism and transient ischemic attacks (post hoc analysis, placebo 3.4% per year): 2.9 % per year
